This note sets out measurements from US20260070945A1, “MACROCYCLIC IMMUNOMODULATORS” (Bristol-Myers Squibb Company, priority 2022, published 2026).

As a reminder, the IC50 is the midpoint of a concentration-inhibition curve.

*1 amine or outer side, *2 acyl side, *3 side chain or, on linkers, in order; H or OH if unused. Where a SMILES comes first, the peptide text is derived from it. Bridges are numbered along the chain shown (N, C = ends). [ ]: non-standard residue; d: D form. The star is where a group is joined. X8 = O=C(O)COc1ccc(C[C@H](N[*:1])C(=O)[*:2])cn1; Phe(4-COOH) = N[C@@H](Cc1ccc(C(=O)O)cc1)C(=O)O; Bip = N[C@@H](Cc1ccc(-c2ccccc2)cc1)C(=O)O; 4Pal = N[C@@H](Cc1ccncc1)C(=O)O; Cha = N[C@@H](CC1CCCCC1)C(=O)O; Carboxymethyl = O=C(O)C*; NMeA = CN[C@@H](C)C(=O)O; Orn = NCCC[C@H](N)C(=O)O; Aun = NCCCCCCCCCCC(=O)O; Dab = NCC[C@H](N)C(=O)O; Dap = NC[C@H](N)C(=O)O

The experiment deals with T1, PD-1/PD-L1 interaction (PE-labeled human PD-L1-Ig binding to Jurkat cell line over-expressing human PD-1) (Homo sapiens, UniProt Q15116).
T1 construct: expressed in transfected cells; host or cells: Jurkat
T1 sequence (Q15116 25-288): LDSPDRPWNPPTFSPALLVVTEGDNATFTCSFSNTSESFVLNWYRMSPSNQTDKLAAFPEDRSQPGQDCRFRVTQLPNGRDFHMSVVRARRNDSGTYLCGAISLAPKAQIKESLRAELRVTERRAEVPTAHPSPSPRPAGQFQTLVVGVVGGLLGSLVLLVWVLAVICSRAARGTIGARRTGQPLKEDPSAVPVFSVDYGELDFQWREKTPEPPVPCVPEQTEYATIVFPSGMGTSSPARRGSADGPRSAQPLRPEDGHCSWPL
Put plainly: Jurkat-PD-1 Cell Binding High-Content Screening Assay (CBA). The conditions noted are these: Jurkat-hPD-1 cells, PE-labeled PD-L1-Ig 20 nM final; read-out: Jurkat HPD1 PDL1 IC50. In short, it runs like this:
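Binding of 20 nM (final) PE-tagged PD-L1-Ig to compound-pretreated Jurkat-hPD-1 cells was measured by high-content imaging after 1 h. Pretreatment ran 2 h at 37 °C in DMEM with 10% fetal calf serum.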
For the molecule `CC(C)C[C@@H]1NC(=O)[C@H](Cc2c[nH]c3ccccc23)NC(=O)[C@H](CC(=O)O)NC(=O)[C@H](Cc2ccc(OCC(=O)O)cc2)NC(=O)[C@H](Cc2ccccc2)NC(=O)CSC[C@@H](C(=O)N[C@@H](CCCN)C(=O)NCCCCCCCCCCC(=O)O)NC(=O)[C@H]([C@@H](C)O)NC(=O)[C@H](C(C)C)NC(=O)[C@H](CC(C)C)NC(=O)[C@H](CC(N)=O)NC(=O)[C@@H](CC(C)C)NC(=O)[C@H](C)N(C)C(=O)[C@H](C(C)C)NC(=O)[C@H](Cc2ccc(-c3ccccc3)cc2)NC1=O` [Example 1335] ({CH2CO}-FY(Carboxymethyl)DWL[Bip]V[NMeA][dL]NLVTC[Orn][Aun]-OH; thioether N-14), the half-inhibitory concentration (IC50) turned out to be 59 nM.

For `CC(C)C[C@@H]1NC(=O)[C@H](Cc2c[nH]c3ccccc23)NC(=O)[C@H](CC(=O)O)NC(=O)[C@H](Cc2ccc(OCC(=O)O)cc2)NC(=O)[C@H](Cc2ccccc2)NC(=O)CSC[C@@H](C(=O)N[C@@H](CCCN)C(=O)NCCCCCCCCCCC(=O)O)NC(=O)[C@H](CCC(=O)O)NC(=O)[C@H](C(C)C)NC(=O)[C@H](CC(C)C)NC(=O)[C@H](CC(N)=O)NC(=O)[C@@H](CC(C)C)NC(=O)[C@H](C)N(C)C(=O)[C@H](C(C)C)NC(=O)[C@H](Cc2ccc(-c3ccccc3)cc2)NC1=O` [Example 1336] ({CH2CO}-FY(Carboxymethyl)DWL[Bip]V[NMeA][dL]NLVEC[Orn][Aun]-OH; thioether N-14), the IC50 came out at 198 nM.

For `CC(C)C[C@@H]1NC(=O)[C@H](Cc2c[nH]c3ccccc23)NC(=O)[C@H](CC(=O)O)NC(=O)[C@H](Cc2ccc(C(=O)O)cc2)NC(=O)[C@H](Cc2ccc(OCC(=O)O)cc2)NC(=O)CSC[C@@H](C(=O)N[C@@H](CCN)C(=O)NCCCCCCCCCCC(=O)O)NC(=O)[C@H](CCC(N)=O)NC(=O)[C@H](C(C)C)NC(=O)[C@H](CC2CCCCC2)NC(=O)[C@H](CCN)NC(=O)[C@@H](CC(C)C)NC(=O)[C@H](C)N(C)C(=O)[C@H](C(C)C)NC(=O)[C@H](Cc2ccc(-c3ccccc3)cc2)NC1=O` [Example 1337] ({CH2CO}-Y(Carboxymethyl)[Phe(4-COOH)]DWL[Bip]V[NMeA][dL][Dab][Cha]VQC[Dab][Aun]-OH; thioether N-14), the IC50 was found to be 9.9 nM. On to `CC(C)C[C@@H]1NC(=O)[C@H](Cc2c[nH]c3ccccc23)NC(=O)[C@H](CC(=O)O)NC(=O)[C@H](Cc2ccc(C(=O)O)cc2)NC(=O)[C@H](Cc2ccc(OCC(=O)O)cc2)NC(=O)CSC[C@@H](C(=O)N[C@@H](CCN)C(=O)NCCCCCCCCCCC(=O)O)NC(=O)[C@@H](CCC(N)=O)NC(=O)[C@H](C(C)C)NC(=O)[C@H](CC2CCCCC2)NC(=O)[C@H](CCN)NC(=O)[C@@H](CC(C)C)NC(=O)[C@H](C)N(C)C(=O)[C@H](C(C)C)NC(=O)[C@H](Cc2ccc(-c3ccccc3)cc2)NC1=O` [Example 1339] ({CH2CO}-Y(Carboxymethyl)[Phe(4-COOH)]DWL[Bip]V[NMeA][dL][Dab][Cha]V[dQ]C[Dab][Aun]-OH; thioether N-14), for which the IC50 is 28 nM. For `CC(C)C[C@@H]1NC(=O)[C@H](Cc2c[nH]c3ccccc23)NC(=O)[C@H](CC(=O)O)NC(=O)[C@H](Cc2ccncc2)NC(=O)[C@H](Cc2ccc(OCC(=O)O)cc2)NC(=O)CSC[C@@H](C(=O)N[C@@H](CCN)C(=O)NCCCCCCCCCCC(=O)O)NC(=O)[C@H](CCC(N)=O)NC(=O)[C@H](C(C)C)NC(=O)[C@H](CC2CCCCC2)NC(=O)[C@H](CCN)NC(=O)[C@@H](CC(C)C)NC(=O)[C@H](C)N(C)C(=O)[C@H](C(C)C)NC(=O)[C@H](Cc2ccc(-c3ccccc3)cc2)NC1=O` [Example 1341] ({CH2CO}-Y(Carboxymethyl)[4Pal]DWL[Bip]V[NMeA][dL][Dab][Cha]VQC[Dab][Aun]-OH; thioether N-14) the value was 9.1 nM; for `CC(C)C[C@@H]1NC(=O)[C@H](Cc2c[nH]c3ccccc23)NC(=O)[C@H](CC(=O)O)NC(=O)[C@H](Cc2ccncc2)NC(=O)[C@H](Cc2ccc(OCC(=O)O)cc2)NC(=O)CSC[C@@H](C(=O)N[C@@H](CCCN)C(=O)NCCCCCCCCCCC(=O)O)NC(=O)[C@H](CCC(N)=O)NC(=O)[C@H](C(C)C)NC(=O)[C@H](CC2CCCCC2)NC(=O)[C@H](CCN)NC(=O)[C@@H](CC(C)C)NC(=O)[C@H](C)N(C)C(=O)[C@H](C(C)C)NC(=O)[C@H](Cc2ccc(-c3ccccc3)cc2)NC1=O` [Example 1342] ({CH2CO}-Y(Carboxymethyl)[4Pal]DWL[Bip]V[NMeA][dL][Dab][Cha]VQC[Orn][Aun]-OH; thioether N-14), 18 nM. For `CC(C)C[C@@H]1NC(=O)[C@H](Cc2c[nH]c3ccccc23)NC(=O)[C@H](CC(=O)O)NC(=O)[C@H](Cc2ccncc2)NC(=O)[C@H](Cc2ccc(OCC(=O)O)nc2)NC(=O)CSC[C@@H](C(=O)N[C@@H](CCN)C(=O)NCCCCCCCCCCC(=O)O)NC(=O)[C@H](CCC(N)=O)NC(=O)[C@H](C(C)C)NC(=O)[C@H](CC2CCCCC2)NC(=O)[C@H](CCN)NC(=O)[C@@H](CC(C)C)NC(=O)[C@H](C)N(C)C(=O)[C@H](C(C)C)NC(=O)[C@H](Cc2ccc(-c3ccccc3)cc2)NC1=O` [Example 1343] ({CH2CO}-[X8][4Pal]DWL[Bip]V[NMeA][dL][Dab][Cha]VQC[Dab][Aun]-OH; thioether N-14), the 50% inhibitory concentration (IC50) amounted to 39.2 nM. Turning to `CC(C)C[C@@H]1NC(=O)[C@H](Cc2c[nH]c3ccccc23)NC(=O)[C@H](CC(=O)O)NC(=O)[C@H](Cc2ccncc2)NC(=O)[C@H](Cc2ccc(OCC(=O)O)cc2)NC(=O)CSC[C@@H](C(=O)N[C@@H](CCCN)C(=O)NCCCCCCCCCCC(=O)O)NC(=O)[C@@H](CCC(N)=O)NC(=O)[C@H](C(C)C)NC(=O)[C@H](CC2CCCCC2)NC(=O)[C@H](CCN)NC(=O)[C@@H](CC(C)C)NC(=O)[C@H](C)N(C)C(=O)[C@H](C(C)C)NC(=O)[C@H](Cc2ccc(-c3ccccc3)cc2)NC1=O` [Example 1344] ({CH2CO}-Y(Carboxymethyl)[4Pal]DWL[Bip]V[NMeA][dL][Dab][Cha]V[dQ]C[Orn][Aun]-OH; thioether N-14), the half-inhibitory concentration (IC50) came out at 69.5 nM. Regarding `CC(C)C[C@@H]1NC(=O)[C@H](Cc2c[nH]c3ccccc23)NC(=O)[C@H](CC(=O)O)NC(=O)[C@H](Cc2ccc(OCC(=O)O)cc2)NC(=O)[C@H](Cc2ccccc2)NC(=O)CSC[C@@H](C(=O)N[C@@H](CCCN)C(=O)NCCCCCCCCCCC(=O)O)NC(=O)[C@H](CCC(N)=O)NC(=O)[C@H](C(C)C)NC(=O)[C@H](CC(C)C)NC(=O)[C@H](CC(N)=O)NC(=O)[C@@H](CC(C)C)NC(=O)[C@H](C)N(C)C(=O)[C@H](C(C)C)NC(=O)[C@H](Cc2ccc(-c3ccccc3)cc2)NC1=O` [Example 1345] ({CH2CO}-FY(Carboxymethyl)DWL[Bip]V[NMeA][dL]NLVQC[Orn][Aun]-OH; thioether N-14), the IC50 was 118 nM. On to `CC(C)C[C@@H]1NC(=O)[C@H](Cc2c[nH]c3ccccc23)NC(=O)[C@H](CC(=O)O)NC(=O)[C@H](Cc2ccc(OCC(=O)O)cc2)NC(=O)[C@H](Cc2ccccc2)NC(=O)CSC[C@@H](C(=O)N[C@@H](CCN)C(=O)NCCCCCCCCCCC(=O)O)NC(=O)[C@H](CCC(N)=O)NC(=O)[C@H](C(C)C)NC(=O)[C@H](CC(C)C)NC(=O)[C@H](CC(N)=O)NC(=O)[C@@H](CC(C)C)NC(=O)[C@H](C)N(C)C(=O)[C@H](C(C)C)NC(=O)[C@H](Cc2ccc(-c3ccccc3)cc2)NC1=O` [Example 1346] ({CH2CO}-FY(Carboxymethyl)DWL[Bip]V[NMeA][dL]NLVQC[Dab][Aun]-OH; thioether N-14), for which the IC50 turned out to be 113 nM. For the molecule `CC(C)C[C@@H]1NC(=O)[C@H](Cc2c[nH]c3ccccc23)NC(=O)[C@H](CC(=O)O)NC(=O)[C@H](Cc2ccc(OCC(=O)O)cc2)NC(=O)[C@H](Cc2ccccc2)NC(=O)CSC[C@@H](C(=O)N[C@@H](CCCN)C(=O)NCCCCCCCCCCC(=O)O)NC(=O)[C@@H](CCC(N)=O)NC(=O)[C@H](C(C)C)NC(=O)[C@H](CC(C)C)NC(=O)[C@H](CC(N)=O)NC(=O)[C@@H](CC(C)C)NC(=O)[C@H](C)N(C)C(=O)[C@H](C(C)C)NC(=O)[C@H](Cc2ccc(-c3ccccc3)cc2)NC1=O` [Example 1347] ({CH2CO}-FY(Carboxymethyl)DWL[Bip]V[NMeA][dL]NLV[dQ]C[Orn][Aun]-OH; thioether N-14), the IC50 was 301 nM. The figure for `CC(C)C[C@@H]1NC(=O)[C@H](Cc2c[nH]c3ccccc23)NC(=O)[C@H](CC(=O)O)NC(=O)[C@H](Cc2ccc(C(=O)O)cc2)NC(=O)[C@H](Cc2ccc(OCC(=O)O)cc2)NC(=O)CSC[C@@H](C(=O)N[C@@H](CCCCN)C(=O)NCCCCCCCCCCC(=O)O)NC(=O)[C@H](CN)NC(=O)[C@H](C(C)C)NC(=O)[C@H](CC2CCCCC2)NC(=O)[C@H](CCN)NC(=O)[C@@H](CC(C)C)NC(=O)[C@H](C)N(C)C(=O)[C@H](C(C)C)NC(=O)[C@H](Cc2ccc(-c3ccccc3)cc2)NC1=O` [Example 1348] ({CH2CO}-Y(Carboxymethyl)[Phe(4-COOH)]DWL[Bip]V[NMeA][dL][Dab][Cha]V[Dap]CK[Aun]-OH; thioether N-14) is 39.4 nM; for `CC(C)C[C@@H]1NC(=O)[C@H](Cc2c[nH]c3ccccc23)NC(=O)[C@H](CC(=O)O)NC(=O)[C@H](Cc2ccncc2)NC(=O)[C@H](Cc2ccc(OCC(=O)O)cc2)NC(=O)CSC[C@@H](C(=O)N[C@@H](CCCCN)C(=O)NCCCCCCCCCCC(=O)O)NC(=O)[C@H](CN)NC(=O)[C@H](C(C)C)NC(=O)[C@H](CC2CCCCC2)NC(=O)[C@H](CCN)NC(=O)[C@@H](CC(C)C)NC(=O)[C@H](C)N(C)C(=O)[C@H](C(C)C)NC(=O)[C@H](Cc2ccc(-c3ccccc3)cc2)NC1=O` [Example 1349] ({CH2CO}-Y(Carboxymethyl)[4Pal]DWL[Bip]V[NMeA][dL][Dab][Cha]V[Dap]CK[Aun]-OH; thioether N-14) it is 15.8 nM.
